According to ChEMBL document CHEMBL1151348, “Plant anticancer agents. X. Lignans from Juniperus phoenicea” (1980):
In brackets after ≈: the same amount, converted by molar mass.

System: KB
Experiment: Cytotoxicity against human KB cells
Type: functional
Settings: read-out: ED50 (the source's name)

COc1cc([C@@H]2c3cc4c(c(OC)c3C[C@H]3COC(=O)[C@@H]32)OCO4)cc(OC)c1OC
EC50: 0.026 µg/mL (≈ 0.0607 µM)
